The subject of one experiment is COLO 205. The experiment is described as follows: Antiproliferative activity against human COLO205 cells by MTT assay. It counts as functional, cell-based.
The subject of a further experiment is K562. The experiment is described as follows: Antiproliferative activity against human K562 cells by MTT assay. The experiment is classed as functional, cell-based. In general terms: Tetrazolium assays rely on reduction of a dye to a coloured formazan, in cell work by metabolically active cells.
The test system of another experiment is MDA-MB-231. As to the kind of experiment: Antiproliferative activity against human MDA-MB-231 cells by MTT assay. The experiment is classed as functional, cell-based.
Experiment [1] concerns the target T1, NAD-dependent protein deacetylase sirtuin-1 (Homo sapiens) (UniProt Q96EB6).
T1 sequence (whole entry): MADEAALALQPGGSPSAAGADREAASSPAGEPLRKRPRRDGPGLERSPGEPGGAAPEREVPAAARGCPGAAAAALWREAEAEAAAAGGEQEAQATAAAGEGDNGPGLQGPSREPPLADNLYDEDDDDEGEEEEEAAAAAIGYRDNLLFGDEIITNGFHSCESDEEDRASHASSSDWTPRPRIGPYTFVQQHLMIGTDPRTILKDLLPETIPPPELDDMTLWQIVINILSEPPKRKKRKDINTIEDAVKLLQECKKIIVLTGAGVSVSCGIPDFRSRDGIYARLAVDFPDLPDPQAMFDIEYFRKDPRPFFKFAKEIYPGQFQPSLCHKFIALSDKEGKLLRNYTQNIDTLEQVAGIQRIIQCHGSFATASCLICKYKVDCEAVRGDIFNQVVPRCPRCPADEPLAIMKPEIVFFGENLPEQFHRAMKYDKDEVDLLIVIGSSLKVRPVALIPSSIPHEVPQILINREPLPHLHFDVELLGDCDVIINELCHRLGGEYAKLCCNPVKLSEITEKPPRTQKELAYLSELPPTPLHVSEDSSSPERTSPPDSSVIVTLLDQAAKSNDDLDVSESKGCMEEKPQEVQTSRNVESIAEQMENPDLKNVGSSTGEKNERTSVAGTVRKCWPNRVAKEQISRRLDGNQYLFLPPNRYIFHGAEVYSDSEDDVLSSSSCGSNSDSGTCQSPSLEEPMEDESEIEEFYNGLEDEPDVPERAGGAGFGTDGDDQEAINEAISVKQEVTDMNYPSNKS
As to the kind of experiment: Inhibition of Sirt1 expressed in human U2OS cells assessed as acetylation of p53 at 10 uM. The experiment is classed as cell-based.

Structures are written as SMILES.

What is called IC50 is the concentration needed to halve the response being measured. For orientation: inhibition means the percentage by which the read-out fell short of the control.

For the compound `O=c1[nH]c(-c2ccc(Br)cc2)nc2ccccc12`, the IC50 was found to be 11 µM in the experiment on COLO 205 (Homo sapiens, COLO 205); 21 µM in the experiment on K562 (Homo sapiens, K562); 41 µM with MDA-MB-231 (Homo sapiens, MDA-MB-231).
Turning to `CCCc1nn(C)c2c(=O)[nH]c(-c3cccc(Br)c3)nc12`, the IC50 with COLO 205 (Homo sapiens, COLO 205) worked out at 12 µM; with K562 (Homo sapiens, K562), 24 µM; in the experiment with MDA-MB-231 (Homo sapiens, MDA-MB-231), 38 µM. In experiment [1], the inhibition was determined as 59%.
In the case of `CCCc1nn(C)c2c(=O)[nH]c(-c3ccc(Br)cc3)nc12`, the IC50 with COLO 205 (Homo sapiens, COLO 205) stood at 25 µM; in the experiment with K562 (Homo sapiens, K562), 17 µM; in the experiment on MDA-MB-231 (Homo sapiens, MDA-MB-231), 46 µM.
In the same order, the values of `CCCc1nn(C)c2c(=O)[nH]c(-c3ccc(C)cc3)nc12` are 14 µM, 19 µM and 48 µM.
The matching figures for `CCCc1nn(C)c2c(=O)[nH]c(-c3cccc(Cl)c3)nc12`: 11 µM, 16 µM and 40 µM.
`CCCc1nn(C)c2c(=O)[nH]c(-c3ccc(OC)cc3)nc12`: the IC50 in the experiment on COLO 205 (Homo sapiens, COLO 205) is 9 µM; in the experiment with K562 (Homo sapiens, K562), 21 µM; in the experiment on MDA-MB-231 (Homo sapiens, MDA-MB-231), 44 µM.
As to `CCCc1nn(C)c2c(=O)[nH]c(-c3ccc(O)c(OC(F)F)c3)nc12`, the IC50 in the experiment with COLO 205 (Homo sapiens, COLO 205) was 7 µM; in the experiment with K562 (Homo sapiens, K562), 15 µM; in the experiment with MDA-MB-231 (Homo sapiens, MDA-MB-231), 25 µM. In experiment [1], the inhibition stood at 63%.
Consider `CCCc1nn(C)c2c(=O)[nH]c(-c3ccc(Cl)cc3)nc12`, for which the IC50 with COLO 205 (Homo sapiens, COLO 205) amounted to 10 µM; in the experiment on K562 (Homo sapiens, K562), 15 µM; in the experiment on MDA-MB-231 (Homo sapiens, MDA-MB-231), 51 µM.
Consider `Cc1ccc(C(=O)Nc2ccc(S(=O)(=O)O)c3cc(S(=O)(=O)O)cc(S(=O)(=O)O)c23)cc1NC(=O)c1cccc(NC(=O)Nc2cccc(C(=O)Nc3cc(C(=O)Nc4ccc(S(=O)(=O)O)c5cc(S(=O)(=O)O)cc(S(=O)(=O)O)c45)ccc3C)c2)c1`, for which the inhibition in experiment [1] stood at 79%.
With `COc1ccc(-c2nc(O)c3ccccc3n2)cc1`, the IC50 worked out at 8 µM in the experiment with COLO 205 (Homo sapiens, COLO 205); 24 µM in the experiment on K562 (Homo sapiens, K562); 28 µM in the experiment on MDA-MB-231 (Homo sapiens, MDA-MB-231).
In the case of `O=c1[nH]c(-c2ccc([N+](=O)[O-])cc2)nc2ccccc12`, the IC50 with COLO 205 (Homo sapiens, COLO 205) was determined as 23 µM; with COLO 205 (colo 205), 12 µM; in the experiment with K562 (Homo sapiens, K562) it was 20 µM; in the experiment on K562 (k562) it was 19 µM; in the experiment with MDA-MB-231 (Homo sapiens, MDA-MB-231) it was 37 µM; in the experiment with MDA-MB-231 (mda-mb-231), 42 µM.
For `COc1ccc2c(c1)[nH]c1c(C)nccc12` [HARMINE], the IC50 in the experiment on COLO 205 (Homo sapiens, COLO 205) is 8 µM; with K562 (Homo sapiens, K562), 14 µM; in the experiment on MDA-MB-231 (Homo sapiens, MDA-MB-231) it was 32 µM.
Take `Oc1nc(-c2ccc(F)cc2)nc2ccccc12`: the IC50 in the experiment with COLO 205 (Homo sapiens, COLO 205) was 10 µM; in the experiment with K562 (Homo sapiens, K562), 17 µM; in the experiment on MDA-MB-231 (Homo sapiens, MDA-MB-231), 20 µM. For the same compound, the inhibition in experiment [1] stood at 48%.
`O=c1[nH]c(-c2cccc(Cl)c2)nc2ccccc12`: the IC50 in the experiment on COLO 205 (Homo sapiens, COLO 205) turned out to be 12 µM; with K562 (Homo sapiens, K562), 18 µM; in the experiment with MDA-MB-231 (Homo sapiens, MDA-MB-231), 41 µM.
Consider `CCCc1nn(C)c2c(=O)[nH]c(-c3cccc([N+](=O)[O-])c3O)nc12`, for which the IC50 worked out at 10 µM in the experiment with COLO 205 (Homo sapiens, COLO 205); 21 µM in the experiment with K562 (Homo sapiens, K562); 44 µM in the experiment with MDA-MB-231 (Homo sapiens, MDA-MB-231). Also, the inhibition in experiment [1] came out at 61%.

For the origin of these results see ChEMBL document CHEMBL2057091, “InCl3-catalysed synthesis of 2-aryl quinazolin-4(3H)-ones and 5-aryl pyrazolo[4,3-d]pyrimidin-7(6H)-ones and their evaluation as potential anticancer agents” (Bioorg Med Chem Lett, 2012).
